Source: ChEMBL document CHEMBL3885881, “DrugMatrix”

Species on record: Rattus norvegicus
Test: DrugMatrix - Regimen: Daily Repeat
Assay type: toxicity, organism-based, Sprague-Dawley
Parameters: regimen Daily Repeat, gender Male, age 6-8 weeks
Details: in vivo, po, route oral GAVAGE, vehicle .5 % CMC; for ABSOLUTE BASOPHIL / ABSOLUTE EOSINOPHIL / ABSOLUTE LYMPHOCYTE / ABSOLUTE MONOCYTE / ABSOLUTE SEGMENTED NEUTROPHIL / BASOPHIL / EOSINOPHIL / ERYTHROCYTE COUNT / HEMATOCRIT / HEMOGLOBIN / LEUKOCYTE COUNT / LYMPHOCYTE / MEAN CORPUSCULAR HEMOGLOBIN / MEAN CORPUSCULAR HEMOGLOBIN CONCENTRATION / MEAN CORPUSCULAR VOLUME / MONOCYTE / NEUTROPHIL / NUCLEATED RED BLOOD CELLS / PLATELET COUNT: tissue Blood; for ALANINE AMINOTRANSFERASE / ALBUMIN / ALKALINE PHOSPHATASE / ASPARTATE AMINOTRANSFERASE / BLOOD UREA NITROGEN / CARBON DIOXIDE / CHLORIDE / CHOLESTEROL / CREATINE PHOSPHOKINASE / CREATININE / GLUCOSE / LACTATE DEHYDROGENASE / LIPASE / PHOSPHORUS / POTASSIUM / SODIUM / TOTAL BILIRUBIN / TOTAL PROTEIN / URIC ACID: tissue Plasma
[1] = 10 mg/kg, 72 h, dose level Low, time 3 day
[2] = 10 mg/kg, 120 h, dose level Low, time 5 day
[3] = 200 mg/kg, 72 h, dose level High, time 3 day
[4] = 200 mg/kg, 120 h, dose level High, time 5 day

SMILES: Nc1nc(N)c2nc(-c3ccccc3)c(N)nc2n1
- ABSOLUTE BASOPHIL [1]: 0 CELLS/uL
- ABSOLUTE EOSINOPHIL [1]: 222 CELLS/uL
- ABSOLUTE LYMPHOCYTE [1]: 17071.33 CELLS/uL
- ABSOLUTE MONOCYTE [1]: 553.33 CELLS/uL
- ABSOLUTE SEGMENTED NEUTROPHIL [1]: 1620 CELLS/uL
- BASOPHIL [1]: 0%
- EOSINOPHIL [1]: 1%
- ERYTHROCYTE COUNT [1]: 5.9 x10E6/uL
- HEMATOCRIT [1]: 37.03%
- HEMOGLOBIN [1]: 13.67 G/DL
- LEUKOCYTE COUNT [1]: 19.47 x10E3/uL
- LYMPHOCYTE [1]: 87.33%
- MEAN CORPUSCULAR HEMOGLOBIN [1]: 23.17 pg
- MEAN CORPUSCULAR HEMOGLOBIN CONCENTRATION [1]: 36.93 G/DL
- MEAN CORPUSCULAR VOLUME [1]: 62.7 fL
- MONOCYTE [1]: 3%
- NEUTROPHIL [1]: 8.67%
- NUCLEATED RED BLOOD CELLS [1]: 0 /100WBC
- PLATELET COUNT [1]: 1434.33 x10E3/uL
- ALANINE AMINOTRANSFERASE [1]: 48.33 u/L
- ALBUMIN [1]: 4.3 G/DL
- ALKALINE PHOSPHATASE [1]: 469.67 u/L
- ASPARTATE AMINOTRANSFERASE [1]: 88 u/L
- BLOOD UREA NITROGEN [1]: 15.33 mg/dL
- CARBON DIOXIDE [1]: 24 mmol/L
- CHLORIDE [1]: 104.67 MEQ/L
- CHOLESTEROL [1]: 67.33 mg/dL
- CREATINE PHOSPHOKINASE [1]: 281 u/L
- CREATININE [1]: 0.21 mg/dL
- GLUCOSE [1]: 161.33 mg/dL
- LACTATE DEHYDROGENASE [1]: 437.67 u/L
- LIPASE [1]: 8.67 u/L
- PHOSPHORUS [1]: 13.37 mg/dL
- POTASSIUM [1]: 6.69 MEQ/L
- SODIUM [1]: 147.13 MEQ/L
- TOTAL BILIRUBIN [1]: 0.23 mg/dL
- TOTAL PROTEIN [1]: 6.03 G/DL
- URIC ACID [1]: 2.37 mg/dL
- ABSOLUTE BASOPHIL [2]: 0 CELLS/uL
- ABSOLUTE EOSINOPHIL [2]: 142.67 CELLS/uL
- ABSOLUTE LYMPHOCYTE [2]: 11218.33 CELLS/uL
- ABSOLUTE MONOCYTE [2]: 128 CELLS/uL
- ABSOLUTE SEGMENTED NEUTROPHIL [2]: 1311 CELLS/uL
- BASOPHIL [2]: 0%
- EOSINOPHIL [2]: 1.33%
- ERYTHROCYTE COUNT [2]: 5.9 x10E6/uL
- HEMATOCRIT [2]: 36.6%
- HEMOGLOBIN [2]: 13.67 G/DL
- LEUKOCYTE COUNT [2]: 12.8 x10E3/uL
- LYMPHOCYTE [2]: 87.67%
- MEAN CORPUSCULAR HEMOGLOBIN [2]: 23.17 pg
- MEAN CORPUSCULAR HEMOGLOBIN CONCENTRATION [2]: 37.33 G/DL
- MEAN CORPUSCULAR VOLUME [2]: 62 fL
- MONOCYTE [2]: 1%
- NEUTROPHIL [2]: 10%
- NUCLEATED RED BLOOD CELLS [2]: 0.33 /100WBC
- PLATELET COUNT [2]: 1227.67 x10E3/uL
- ALANINE AMINOTRANSFERASE [2]: 45.33 u/L
- ALBUMIN [2]: 4.2 G/DL
- ALKALINE PHOSPHATASE [2]: 320.33 u/L
- ASPARTATE AMINOTRANSFERASE [2]: 83 u/L
- BLOOD UREA NITROGEN [2]: 18.67 mg/dL
- CARBON DIOXIDE [2]: 26 mmol/L
- CHLORIDE [2]: 106.67 MEQ/L
- CHOLESTEROL [2]: 68.33 mg/dL
- CREATINE PHOSPHOKINASE [2]: 371.67 u/L
- CREATININE [2]: 0.19 mg/dL
- GLUCOSE [2]: 145 mg/dL
- LACTATE DEHYDROGENASE [2]: 432 u/L
- LIPASE [2]: 9 u/L
- PHOSPHORUS [2]: 11.77 mg/dL
- POTASSIUM [2]: 5.68 MEQ/L
- SODIUM [2]: 147.3 MEQ/L
- TOTAL BILIRUBIN [2]: 0.17 mg/dL
- TOTAL PROTEIN [2]: 5.93 G/DL
- URIC ACID [2]: 1.3 mg/dL
- ABSOLUTE BASOPHIL [3]: 0 CELLS/uL
- ABSOLUTE EOSINOPHIL [3]: 51 CELLS/uL
- ABSOLUTE LYMPHOCYTE [3]: 12546 CELLS/uL
- ABSOLUTE MONOCYTE [3]: 436.67 CELLS/uL
- ABSOLUTE SEGMENTED NEUTROPHIL [3]: 1333 CELLS/uL
- BASOPHIL [3]: 0%
- EOSINOPHIL [3]: 0.33%
- ERYTHROCYTE COUNT [3]: 5.38 x10E6/uL
- HEMATOCRIT [3]: 33.6%
- HEMOGLOBIN [3]: 13.03 G/DL
- LEUKOCYTE COUNT [3]: 14.37 x10E3/uL
- LYMPHOCYTE [3]: 87.33%
- MEAN CORPUSCULAR HEMOGLOBIN [3]: 24.23 pg
- MEAN CORPUSCULAR HEMOGLOBIN CONCENTRATION [3]: 38.83 G/DL
- MEAN CORPUSCULAR VOLUME [3]: 62.47 fL
- MONOCYTE [3]: 3%
- NEUTROPHIL [3]: 9.33%
- NUCLEATED RED BLOOD CELLS [3]: 0.33 /100WBC
- PLATELET COUNT [3]: 1312 x10E3/uL
- ALANINE AMINOTRANSFERASE [3]: 57.33 u/L
- ALBUMIN [3]: 4.17 G/DL
- ALKALINE PHOSPHATASE [3]: 279 u/L
- ASPARTATE AMINOTRANSFERASE [3]: 70.67 u/L
- BLOOD UREA NITROGEN [3]: 22.33 mg/dL
- CARBON DIOXIDE [3]: 27.67 mmol/L
- CHLORIDE [3]: 104.67 MEQ/L
- CHOLESTEROL [3]: 86.67 mg/dL
- CREATINE PHOSPHOKINASE [3]: 220 u/L
- CREATININE [3]: 0.24 mg/dL
- GLUCOSE [3]: 154 mg/dL
- LACTATE DEHYDROGENASE [3]: 170.33 u/L
- LIPASE [3]: 9.33 u/L
- PHOSPHORUS [3]: 12.93 mg/dL
- POTASSIUM [3]: 6.66 MEQ/L
- SODIUM [3]: 145.07 MEQ/L
- TOTAL BILIRUBIN [3]: 0.17 mg/dL
- TOTAL PROTEIN [3]: 5.8 G/DL
- URIC ACID [3]: 1.5 mg/dL
- ABSOLUTE BASOPHIL [4]: 0 CELLS/uL
- ABSOLUTE EOSINOPHIL [4]: 238.67 CELLS/uL
- ABSOLUTE LYMPHOCYTE [4]: 14472.33 CELLS/uL
- ABSOLUTE MONOCYTE [4]: 270.33 CELLS/uL
- ABSOLUTE SEGMENTED NEUTROPHIL [4]: 2185.33 CELLS/uL
- BASOPHIL [4]: 0%
- EOSINOPHIL [4]: 1.33%
- ERYTHROCYTE COUNT [4]: 5.62 x10E6/uL
- HEMATOCRIT [4]: 33.9%
- HEMOGLOBIN [4]: 13.03 G/DL
- LEUKOCYTE COUNT [4]: 17.17 x10E3/uL
- LYMPHOCYTE [4]: 84.33%
- MEAN CORPUSCULAR HEMOGLOBIN [4]: 23.2 pg
- MEAN CORPUSCULAR HEMOGLOBIN CONCENTRATION [4]: 38.43 G/DL
- MEAN CORPUSCULAR VOLUME [4]: 60.33 fL
- MONOCYTE [4]: 1.67%
- NEUTROPHIL [4]: 12.67%
- NUCLEATED RED BLOOD CELLS [4]: 0.67 /100WBC
- PLATELET COUNT [4]: 1441.67 x10E3/uL
- ALANINE AMINOTRANSFERASE [4]: 49.33 u/L
- ALBUMIN [4]: 4.13 G/DL
- ALKALINE PHOSPHATASE [4]: 284.33 u/L
- ASPARTATE AMINOTRANSFERASE [4]: 91.33 u/L
- BLOOD UREA NITROGEN [4]: 20 mg/dL
- CARBON DIOXIDE [4]: 27 mmol/L
- CHLORIDE [4]: 102.67 MEQ/L
- CHOLESTEROL [4]: 62.33 mg/dL
- CREATINE PHOSPHOKINASE [4]: 540.67 u/L
- CREATININE [4]: 0.21 mg/dL
- GLUCOSE [4]: 156.67 mg/dL
- LACTATE DEHYDROGENASE [4]: 601 u/L
- LIPASE [4]: 8.67 u/L
- PHOSPHORUS [4]: 13.17 mg/dL
- POTASSIUM [4]: 5.78 MEQ/L
- SODIUM [4]: 147.03 MEQ/L
- TOTAL BILIRUBIN [4]: 0.13 mg/dL
- TOTAL PROTEIN [4]: 5.8 G/DL
- URIC ACID [4]: 1.77 mg/dL
